Results published in patent US10004678B2, “Anti-dandruff compositions, and methods of use thereof” (LUCAS MEYER COSMETICS CANADA INC., priority 2013, dated 2018).

Tests used:
Assay type in all cases: cell-based
Conditions in all cases: w/v concentration, 0.25% is 2.5 g (dry weight)/L
[1] = system: M. restricta (strain 7877, Centralbureau voor Schimmerlcultures); assay: Malassezia species growth inhibition (MIC), M. restricta
Description: (§1) Determination of the effectiveness of the solution prepared as described in Example 1 on 3 different Malassezia species was determined by measuring the lowest concentration of a molecule for which there is no visible growth of the microorganism strain (MIC). The Malassezia species used were M. furfur (strain 1634.86, Pasteur Institute), M. globose (strain IP 2387.96, Pasteur Institute), and M. restricta (strain 7877, Centralbureau voor Schimmerlcultures). Results are presented as a w/v concentration—i.e., 0.04% is 0.4 g/L; 0.078% is 0.78 g/L, 0.156% is 1.56 g/L and 0.25% is 2.5 g (dry weight)/L.

[2] = system: M. globosa (strain IP 2387.96, Pasteur Institute); assay: Malassezia species growth inhibition (MIC), M. globosa
Description: as §1

[3] = system: M. furfur (strain 1634.86, Pasteur Institute); assay: Malassezia species growth inhibition (MIC), M. furfur
Description: as §1

Structure (SMILES)	MIC (lowest concentration with no visible growth) [1] [%]	MIC (lowest concentration with no visible growth) [2] [%]	MIC (lowest concentration with no visible growth) [3] [%]
Cc1cc(CC(C)CC(C)(C)C)n(O)c(=O)c1.NCCO (stereo not drawn) [Piroctone olamine]	0.156	0.156	0.078
S=[Se]=S [Selenium disulfide]	0.04	0.04	0.04
